Results as given in patent US20130317068A1, “SUBSTITUTED 1,2,4-TRIAZOLE COMPOUNDS AS A SEED TREATMENT TO CONTROL PESTS” (Dow Agrosciences LLC, priority 2012, published 2013).

What was measured:
[1] = system: Aphis gossypii (cotton aphid); experiment: Insecticidal activity on cotton aphid, solutions applied to cabbage leaf surface then infested; format: in vivo; settings: for mortality at 50 ppm / mortality at 200 ppm: Aphis gossypii; for mortality at 200 ppm: Rate 200 PPM solution
Description: (§1) Different substituted 1,2,4-triazole compounds of the present disclosure were tested for insecticidal activity on Aphis gossypii (cotton aphid) and Myzus persicae (green peach aphid). The different substituted 1,2,4-triazole compounds were formulated as either 200 PPM solutions or 50 PPM solutions. The 200 PPM solutions or 50 PPM solutions of the different substituted 1,2,4-triazole compounds were applied to a cabbage leaf surface and the resulting samples were subjected to an infestation of Aphis gossypii and Myzus persicae.
(§2) In Table 1, “ND” means mortality data was not determined at this rate.

[2] = system: Myzus persicae (green peach aphid); experiment: Insecticidal activity on green peach aphid, solutions applied to cabbage leaf surface then infested; format: in vivo; settings: for mortality at 50 ppm: Rate 50 PPM solution; for mortality at 200 ppm: Rate 200 PPM solution
Description: as §1, §2

| SMILES | Average % mortality, Cotton Aphid ([1]; Rate 50 PPM solution) | mortality at 50 ppm ([1]; Rate 50 PPM solution) | mortality at 50 ppm [2] | mortality at 200 ppm [2] | mortality at 200 ppm [1] |
| --- | --- | --- | --- | --- | --- |
| Cn1nc(-c2c(F)cccc2F)nc1C1(C)CC1(Cl)Cl (stereo not drawn) [drawing 12] | 95% | – | – | – | – |
| Cn1nc(-c2c(Cl)cncc2Cl)nc1-c1ccc(C(F)(F)F)cc1 | – | 88% | 79% | 87% | – |
| Cn1nc(-c2c(F)cccc2F)nc1C1(C)CC1(Cl)Cl (stereo not drawn) [drawing 11] | – | 90% | 13% | 81% | – |
| Cc1cc(-c2ccc(OC(F)(F)C(F)Cl)cc2)sc1-c1nc(-c2c(F)cccc2Cl)nn1C (stereo not drawn) | – | 66% | 75% | – | – |
| Cn1nc(-c2c(F)cccc2Cl)nc1-c1sc(Cl)c(Cl)c1Cl | – | 32% | 81% | – | 99% |
| Cc1c(Br)csc1-c1nc(-c2c(F)cccc2Cl)nn1C | – | 96% | 87% | 63% | 100% |
| Cc1c(-c2nc(-c3c(F)cccc3Cl)nn2C)csc1-c1ccc(OC(F)(F)C(F)Cl)cc1 (stereo not drawn) | – | 84% | 73% | – | – |
